Test results reported in the supplement of paper PMC11061612.

How the values were obtained:
AZD5991 = compound: Cc1c2c(nn1C)CSCc1cc(n(C)n1)CSc1cc(c3ccccc3c1)OCCCc1c(C(=O)O)n(C)c3c-2c(Cl)ccc13 [AZD5991]; conditions: max 1 µM
Outline: (§1)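 After 24 hours at 37°C and 5% CO2 in 1536-well plates holding 7.5 μl of DMEM/F12 or RPMI with 10% FBS, cancer cell lines were dosed for 72 hours, with final DMSO typically 0.2%. Viability came from CellTiter-Glo 2.0 luminescence, scaled between the means of blank wells and DMSO wells. A non-linear mixed effects model fitted a two-parameter logistic curve to each dose response to give the single-agent IC50.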

Alisertib = compound: COc1cc(Nc2ncc3c(n2)-c2ccc(Cl)cc2C(c2c(F)cccc2OC)=NC3)ccc1C(=O)O [Alisertib]; conditions: max 10 µM
Outline: as §1

Taselisib = compound: Cc1nc(-c2cn3c(n2)-c2ccc(-c4cnn(C(C)(C)C(N)=O)c4)cc2OCC3)n(C(C)C)n1 [Taselisib]; conditions: max 10 µM
Outline: as §1

AZD1390 = compound: CC(C)n1c(=O)n(C)c2cnc3cc(F)c(-c4ccc(OCCCN5CCCCC5)nc4)cc3c21 [AZD1390]; conditions: max 0.3 µM
Outline: as §1

Prexasertib = compound: COc1cccc(OCCCN)c1-c1cc(Nc2cnc(C#N)cn2)n[nH]1 [Prexasertib]; conditions: max 1 µM
Outline: as §1

AZD8186 = compound: C[C@@H](Nc1cc(F)cc(F)c1)c1cc(C(=O)N(C)C)cc2c(=O)cc(N3CCOCC3)oc12 [AZD8186]; conditions: max 10 µM
Outline: as §1

Carboplatin = compound: C1CC(C1)(C(=O)[O-])C(=O)[O-].N.N.[Pt+2] [Carboplatin]; conditions: max 10 µM
Outline: as §1

Venetoclax = compound: CC1(C)CCC(CN2CCN(c3ccc(C(=O)NS(=O)(=O)c4ccc(NCC5CCOCC5)c([N+](=O)[O-])c4)c(Oc4cnc5[nH]ccc5c4)c3)CC2)=C(c2ccc(Cl)cc2)C1 [Venetoclax]; conditions: max 1 µM
Outline: as §1

Trametinib = compound: CC(=O)Nc1cccc(-n2c(=O)n(C3CC3)c(=O)c3c(Nc4ccc(I)cc4F)n(C)c(=O)c(C)c32)c1 [Trametinib]; conditions: max 1 µM
Outline: as §1

AZD7648 = compound: Cc1cc2ncnn2cc1Nc1ncc2c(n1)n(C1CCOCC1)c(=O)n2C [AZD7648]; conditions: max 10 µM
Outline: as §1

5-Fluorouracil = compound: O=c1[nH]cc(F)c(=O)[nH]1 [5-Fluorouracil]; conditions: max 20 µM
Outline: as §1

[1] = compound: O=C(Nc1ccc2[nH]nc(-c3ccncc3)c2c1)[C@@H]1CCN(CC(=O)N2CCN(c3ccc(-c4ncccn4)cc3)CC2)C1; conditions: max 5 µM
Outline: as §1

Gefitinib = compound: COc1cc2ncnc(Nc3ccc(F)c(Cl)c3)c2cc1OCCCN1CCOCC1 [Gefitinib]; conditions: max 10 µM
Outline: as §1

Etoposide = compound: COc1cc([C@@H]2c3cc4c(cc3[C@@H](O[C@@H]3O[C@@H]5CO[C@@H](C)O[C@H]5[C@H](O)[C@H]3O)[C@H]3COC(=O)[C@H]23)OCO4)cc(OC)c1O [Etoposide]; conditions: max 10 µM
Outline: as §1

MK-2206 = compound: NC1(c2ccc(-c3nc4ccn5c(=O)[nH]nc5c4cc3-c3ccccc3)cc2)CCC1 [MK-2206]; conditions: max 10 µM
Outline: as §1

Crizotinib = compound: C[C@@H](Oc1cc(-c2cnn(C3CCNCC3)c2)cnc1N)c1c(Cl)ccc(F)c1Cl [Crizotinib]; conditions: max 10 µM
Outline: as §1

AZD1775 = compound: C=CCn1c(=O)c2cnc(Nc3ccc(N4CCN(C)CC4)cc3)nc2n1-c1cccc(C(C)(C)O)n1 [AZD1775]; conditions: max 3 µM
Outline: as §1

Savolitinib = compound: C[C@@H](c1ccc2nccn2c1)n1nnc2ncc(-c3cnn(C)c3)nc21 [Savolitinib]; conditions: max 1 µM
Outline: as §1

AZD5153 = compound: COc1nnc2ccc(N3CCC(c4ccc(OCCN5CCN(C)C(=O)[C@H]5C)cc4)CC3)nn12 [AZD5153]; conditions: max 1 µM
Outline: as §1

Selumetinib = compound: Cn1cnc2c(F)c(Nc3ccc(Br)cc3Cl)c(C(=O)NOCCO)cc21 [Selumetinib]; conditions: max 10 µM
Outline: as §1

Olaparib = compound: O=C(c1cc(Cc2n[nH]c(=O)c3ccccc23)ccc1F)N1CCN(C(=O)C2CC2)CC1 [Olaparib]; conditions: max 10 µM
Outline: as §1

AZD4320 = compound: CN(CC[C@H](CSC1=CC=CC=C1)NC2=C(C=C(C=C2)S(=O)(=O)NC(=O)C3=CC=C(C=C3)N4CCC(CC4)[C@H](C5=CC=CC=C5C6=CC=C(C=C6)Cl)O)S(=O)(=O)C(F)(F)F)CCO [AZD4320]; conditions: max 1 µM
Outline: as §1

Gemcitabine = compound: Nc1ccn([C@@H]2O[C@H](CO)[C@@H](O)C2(F)F)c(=O)n1 [Gemcitabine]; conditions: max 0.3 µM
Outline: as §1

AZD6738 = compound: C[C@@H]1COCCN1C2=NC(=NC(=C2)C3(CC3)[S@](=N)(=O)C)C4=C5C=CNC5=NC=C4 [AZD6738]; conditions: max 10 µM
Outline: as §1

AZD5363 = compound: C1CN(CCC1(C(=O)N[C@@H](CCO)C2=CC=C(C=C2)Cl)N)C3=NC=NC4=C3C=CN4 [AZD5363]; conditions: max 10 µM
Outline: as §1

Doxorubicin = compound: COc1cccc2c1C(=O)c1c(O)c3c(c(O)c1C2=O)C[C@@](O)(C(=O)CO)C[C@@H]3O[C@H]1C[C@H](N)[C@H](O)[C@H](C)O1 [Doxorubicin]; conditions: max 1 µM
Outline: as §1

SRA737 = compound: N#Cc1cnc(Nc2cc(NC[C@H]3CNCCO3)c(C(F)(F)F)cn2)cn1 [SRA737]; conditions: max 10 µM
Outline: as §1

Paclitaxel = compound: CC(=O)O[C@H]1C(=O)[C@@]2(C)[C@H]([C@H](OC(=O)c3ccccc3)[C@]3(O)C[C@H](OC(=O)[C@H](O)[C@@H](NC(=O)c4ccccc4)c4ccccc4)C(C)=C1C3(C)C)[C@]1(OC(C)=O)CO[C@@H]1C[C@@H]2O [Paclitaxel]; conditions: max 3 µM
Outline: as §1

Lapatinib = compound: CS(=O)(=O)CCNCc1ccc(-c2ccc3ncnc(Nc4ccc(OCc5cccc(F)c5)c(Cl)c4)c3c2)o1 [Lapatinib]; conditions: max 10 µM
Outline: as §1

AZD2811 = compound: CCN(CCO)CCCOc1ccc2c(Nc3cc(CC(=O)Nc4cccc(F)c4)[nH]n3)ncnc2c1 [AZD2811]; conditions: max 1 µM
Outline: as §1

SN-38 = compound: CCc1c2c(nc3ccc(O)cc13)-c1cc3c(c(=O)n1C2)COC(=O)[C@]3(O)CC [SN-38]; conditions: max 0.3 µM
Outline: as §1

AZD0156 = compound: CN(C)CCCOc1ccc(-c2ccc3ncc4c(c3c2)n(C2CCOCC2)c(=O)n4C)cn1 [AZD0156]; conditions: max 3 µM
Outline: as §1

SG3199 = compound: CC1=CN2[C@@H](C1)C=NC3=CC(=C(C=C3C2=O)OC)OCCCCCOC4=C(C=C5C(=C4)N=C[C@@H]6CC(=CN6C5=O)C)OC [SG3199]; conditions: max 0.001 µM
Outline: as §1

Dasatinib = compound: CC1=C(C(=CC=C1)Cl)NC(=O)C2=CN=C(S2)NC3=CC(=NC(=N3)C)N4CCN(CC4)CCO [Dasatinib]; conditions: max 2 µM
Outline: as §1

Palbociclib = compound: CC(=O)c1c(C)c2cnc(Nc3ccc(N4CCNCC4)cn3)nc2n(C2CCCC2)c1=O [Palbociclib]; conditions: max 10 µM
Outline: as §1

Row | Cell Line | IC50, cell viability 72 h (AZD5991) [nM] | IC50, cell viability 72 h (Alisertib) [nM] | IC50, cell viability 72 h (Taselisib) [nM] | IC50, cell viability 72 h (AZD1390) [nM] | IC50, cell viability 72 h (Prexasertib) [nM] | IC50, cell viability 72 h (AZD8186) [nM] | IC50, cell viability 72 h (Carboplatin) [nM] | IC50, cell viability 72 h (Venetoclax) [nM] | IC50, cell viability 72 h (Trametinib) [nM] | IC50, cell viability 72 h (AZD7648) [nM] | IC50, cell viability 72 h (5-Fluorouracil) [nM] | IC50, cell viability 72 h [1] [nM] | IC50, cell viability 72 h (Gefitinib) [nM] | IC50, cell viability 72 h (Etoposide) [nM] | IC50, cell viability 72 h (MK-2206) [nM] | IC50, cell viability 72 h (Crizotinib) [nM] | IC50, cell viability 72 h (AZD1775) [nM] | IC50, cell viability 72 h (Savolitinib) [nM] | IC50, cell viability 72 h (AZD5153) [nM] | IC50, cell viability 72 h (Selumetinib) [nM] | IC50, cell viability 72 h (Olaparib) [nM] | IC50, cell viability 72 h (AZD4320) [nM] | IC50, cell viability 72 h (Gemcitabine) [nM] | IC50, cell viability 72 h (AZD6738) [nM] | IC50, cell viability 72 h (AZD5363) [nM] | IC50, cell viability 72 h (Doxorubicin) [nM] | IC50, cell viability 72 h (SRA737) [nM] | IC50, cell viability 72 h (Paclitaxel) [nM] | IC50, cell viability 72 h (Lapatinib) [nM] | IC50, cell viability 72 h (AZD2811) [nM] | IC50, cell viability 72 h (SN-38) [nM] | IC50, cell viability 72 h (AZD0156) [nM] | IC50, cell viability 72 h (SG3199) [nM] | IC50, cell viability 72 h (Dasatinib) [nM] | IC50, cell viability 72 h (Palbociclib) [nM]
1 | ME-1 (Acute Myeloid Leukemia) | 694 | > 10000 | > 10000 | > 300 | 315 | > 10000 | > 10000 | 7.88 | > 1000 | > 10000 | > 20000 | > 5000 | > 10000 | > 10000 | > 10000 | > 10000 | 1260 | > 1000 | > 1000 | > 10000 | > 10000 | 22.7 | > 300 | > 10000 | > 10000 | > 1000 | > 10000 | > 3000 | > 10000 | > 1000 | > 300 | > 3000 | > 1 | > 2000 | > 10000
2 | NB10 (Neuroblastoma) | > 1000 | 56.6 | 6730 | > 300 | 92 | > 10000 | > 10000 | > 1000 | 328 | > 10000 | 18400 | 3880 | > 10000 | 1950 | > 10000 | 3740 | 892 | > 1000 | 664 | > 10000 | > 10000 | > 1000 | 87.1 | 5830 | > 10000 | 528 | > 10000 | 273 | > 10000 | > 1000 | 6.51 | > 3000 | > 1 | > 2000 | > 10000
3 | NCI-H82 (Small Cell Lung Carcinoma) | 227 | 1090 | > 10000 | > 300 | 18.2 | > 10000 | > 10000 | > 1000 | > 1000 | > 10000 | 11800 | > 5000 | > 10000 | 2450 | 2690 | 3570 | 622 | > 1000 | 931 | > 10000 | > 10000 | > 1000 | 32.8 | 2110 | 1360 | 254 | 5800 | 5.46 | > 10000 | 844 | 22.7 | > 3000 | > 1 | > 2000 | > 10000
4 | NCI-H2085 (Non-Small Cell Lung Carcinoma) | > 1000 | 8070 | > 10000 | > 300 | 67.3 | 3580 | > 10000 | > 1000 | > 1000 | > 10000 | > 20000 | > 5000 | > 10000 | > 10000 | > 10000 | > 10000 | 3000 | > 1000 | > 1000 | > 10000 | > 10000 | > 1000 | > 300 | > 10000 | > 10000 | > 1000 | > 10000 | 382 | > 10000 | > 1000 | > 300 | > 3000 | > 1 | 152 | > 10000
5 | RO82-W-1 (Thyroid Gland Carcinoma) | > 1000 | > 10000 | > 10000 | > 300 | > 1000 | > 10000 | > 10000 | > 1000 | > 1000 | > 10000 | > 20000 | > 5000 | > 10000 | > 10000 | > 10000 | > 10000 | > 3000 | > 1000 | > 1000 | > 10000 | > 10000 | > 1000 | > 300 | > 10000 | > 10000 | > 1000 | > 10000 | > 3000 | > 10000 | > 1000 | > 300 | > 3000 | > 1 | > 2000 | > 10000
